Experimental data: patent publication US20090036380A1, “Composition And Method For Brain Tumor Therapy” (Yeda Research and Development Co., Ltd., priority 2006, published 2009)

Key:
TrkA [1] = test: Co-immunoprecipitation of HA-Karet constructs with TrkA; type: binding; conditions: co-transfected Hek or NNR5 cells, anti-HA IP
Procedure: FIG. 3c is a co-immunoprecipitation assay depicting co-immunoprecipitation of HA-Karet with TrkA in COS cells. Karet tagged with the HA epitope was immunoprecipitated with anti-HA antibody and the blot was incubated with anti-TrkA (RTA). In control experiments the HA-Karet was substituted with vector.
FIG. 3d is a co-immunoprecipitation assay depicting interaction of Karet and TrkA in NNR5 cells transfected with TrkA.
FIG. 3e is a co-immunoprecipitation assay depicting co-immunoprecipitation of HA-Karet with TricA in co-transfected NNR5 cells immunoprecipitated with anti-HA (Roche) and Western blot with the anti-TrkA antibody C14 (Santa Cruz).
FIGS. 4a-c are co-immunoprecipitation assay results depicting the influence of NGF treatment on TrkA-Karet interaction. FIG. 4a depicts that TrkA-Karet interaction occurred prior to NGF treatment and was enhanced after ligand stimulation for 10 minutes (10 m) or 2 hours (2 h). HA-Karet was electroporated into cell line PC12, and the cells were treated with 50 ng/ml NGF for the indicated time periods in order to activate p75 and TrkA. Karet tagged with the HA epitope was immunoprecipitated with anti-HA antibody, the precipitated proteins were separated electrophoretically, and gel blots were incubated with anti-TrkA antibody (RTA). FIG. 4b depicts that necdin seems to compete with TrkA for binding to Karet. myc-Karet was electroporated into necdin stable cell line, and the cells were treated with 50 ng/ml NGF for the indicated time periods. Karet tagged with the myc epitope was immunoprecipitated with anti-myc antibody, the precipitated proteins were separated electrophoretically, and gel blots were incubated with anti-TrkA antibody (RTA). […] A blot from the same experiment was stripped and re-incubated with anti-necdin antibody. The arrow indicates the glycosylated form of TrkA (molecular weight of 140 kDa).
FIG. 7b is an immunoprecipitation assay depicting that the PTB domain-containing Karet(1-228) mutant, but not Karet(228-453) co-immunoprecipitates with TrkA in NNR5 cells. Truncation mutants tagged with the HA epitope were immunoprecipitated with anti-HA antibody, the precipitated proteins were separated electrophoretically, and gel blots were incubated with anti-TrkA (RTA).
FIGS. 24a-d depict co IP of Ha Karet with TrkA, TrkB, TrkC, p75 from co-transfected Hek cells. Cells were co-transfected with Ha Karet or control vector and TrkA, TrkB, TrkC or p75. Cells were lysed with NP40, the HA-beads (beads conjugated to anti-HA antibody) were blocked with Hek lysate, and elution was done for 30 minutes at 37° C. […]

TrkA [2] = target: T1, TrkA; test: Tyr phosphorylation of TrkA in PC12 6.24 cells; type: cell-based, human; conditions: PC12-6.24 cells expressing Karet, anti-phospho-Tyr blot
T1 construct: expressed in transfected cells; host or cells: PC12 6.24 cells (rat PC12 stably overexpressing human TrkA; Hempstead et al., 1992)
T1 sequence (P04629 33-796): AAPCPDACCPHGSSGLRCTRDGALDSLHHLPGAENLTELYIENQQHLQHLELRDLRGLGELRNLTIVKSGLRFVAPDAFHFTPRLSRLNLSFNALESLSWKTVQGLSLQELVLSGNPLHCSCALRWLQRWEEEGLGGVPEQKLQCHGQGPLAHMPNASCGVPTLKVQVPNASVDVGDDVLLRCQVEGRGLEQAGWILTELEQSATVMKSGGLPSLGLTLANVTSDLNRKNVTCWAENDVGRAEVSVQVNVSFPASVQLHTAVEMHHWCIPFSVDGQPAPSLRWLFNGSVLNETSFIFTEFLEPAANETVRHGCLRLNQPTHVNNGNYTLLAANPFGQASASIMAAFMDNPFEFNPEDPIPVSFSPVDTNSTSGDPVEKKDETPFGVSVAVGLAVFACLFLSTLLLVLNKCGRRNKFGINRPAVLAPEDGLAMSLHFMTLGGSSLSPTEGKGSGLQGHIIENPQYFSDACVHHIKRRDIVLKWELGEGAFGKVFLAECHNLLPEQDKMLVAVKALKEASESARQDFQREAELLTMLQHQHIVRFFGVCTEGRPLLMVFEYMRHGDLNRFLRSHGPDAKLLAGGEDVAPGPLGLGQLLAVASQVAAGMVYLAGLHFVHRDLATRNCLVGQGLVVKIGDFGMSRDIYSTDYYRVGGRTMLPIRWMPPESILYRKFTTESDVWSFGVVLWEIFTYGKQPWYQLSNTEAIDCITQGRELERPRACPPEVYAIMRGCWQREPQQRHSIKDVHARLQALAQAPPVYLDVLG

NNR5 cells = test: Viability of NNR5 cells transfected with Karet constructs with or without TrkA; type: cell-based, rat
Procedure: FIG. 5f is a viable cell count histogram depicting that the pro-apoptotic effect of Karet is TrkA dependent. NNR5 cells were electroporated with GFP with or without TrkA construct, or Karet with or without TrkA. Cells were incubated for 12 hours after electroporation and results are presented as percent of control (NNR5 transfected with GFP only, mean±SD, n=4, * p<0.05).
FIGS. 20a-q are immunochemistry (FIGS. 20a-p) and FACS (FIG. 20q) analyses of myristylated constructs of Karet, PTB and the non-PTB domain in PC12 (FIGS. 20a-p) or NNR5 (FIG. 20q) cells. Myristylated constructs of Karet (FIGS. 20e-h), PTB (FIGS. 20i-l) and the non-PTB domain (FIGS. 20m-p) or non-myristylated construct of Karet (FIGS. 20a-d) were transfected to PC12 cells and immunochemistry of the expressed constructs was performed using HA-antibody (FIG. 20a), the PTB-antibody (FIGS. 20e, i and m) or Lamin (a nuclear membrane protein)-antibody (FIGS. 20b, f, j, and n). Merged images of the two-color immunocytochemistry are shown in FIG. 20d (for anti-Ha and anti-lamin antibodies) or FIGS. 20h l, and p (for anti-PTB and anti-lamin antibodies). Note the cytoplasmic expression of non-myristylated Karet (FIG. 20a) as compared to the nuclear membrane expression of lamin (FIG. 20b). […] NNR5 cells were transfected with pcDNA3, Ha Karet and TrkA, Myr-Karet, Myr-PTB or Myr-non PTB constructs and the effect on cell viability was determined using calcein (the dead/Live kit). […]
FIGS. 22a-b are histograms depicting the effect of co-transfection of Karet and TrkA on cell death in Hek (FIG. 22a) or NNR5 (FIG. 22b) cells. […] Viability of the cells was measured 24 hours after transfection by XTT. *p<0.05; FIG. 22b—NNR5 cells were co-transfected with Karet or control vector and TrkA, TrkB and TrkC. Cells were analyzed by FACS 24 hours after transfection using the dead/live kit. ** p<0.001.
Viability of cells was evaluated using the Live/dead viability/cytotoxicity kit (Cat. No. L-3224), Molecular Probes, Inc., Eugene, Oreg., USA, according to manufacturer's instructions.

Row | Substance | co-immunoprecipitation / interaction with TrkA (TrkA [1]) | phosphorylation of TrkA (TrkA [2]) | cell viability (NNR5 cells; NNR5 (TrkA deficient), Karet without TrkA) | reduction in cell survival (NNR5 cells; NNR5 co-transfected with Karet and TrkA, 12 hours after electroporation, percent of control) | decrease in viability (NNR5 cells; NNR5 co-transfected with Karet and TrkA, FACS dead/live kit, 24 hours after transfection) [%]
1 | Karet F217V: full-length mouse Karet with phenyl alanine at position 217 point mutated to valine | co-immunoprecipitated |  |  |  | 
2 | Karet: full-length mouse Karet protein (SEQ ID NO:1), PTB domain protein, expressed from pcDNA3 with HA tag | co-immunoprecipitated | significantly enhanced the phosphorylation of the receptor | no reduction in cell viability | about 20% | 13
